Results from patent US20240398767A1, “INHIBITORS OF THE MTDH-SND1 PROTEIN COMPLEX FOR CANCER THERAPY” (The Trustees of Princeton University, priority 2021, published 2024).
pIC50: −log10 of the molar value.

What was measured:
[1] = target: T1, MTDH-SND1 interaction (Homo sapiens, UniProt Q7KZF4); assay: Cell-free split-luciferase (Split-luc) assay, SND1-NLuc + CLuc-MTDH; type: biochemical; settings: for pIC50: split-luc assay in various concentrations; for split-luc activity: 50 μM peptide
T1 construct: made in house; host or cells: HEK293T cells, transient transfection of pcDNA3.1 plasmids; crude cleared lysates, each fusion expressed separately and the lysates pre-mixed
From the text: To generate a luciferase-based screening system, firefly luciferase was split into N- and C-terminals according to previous studies^21-23. Both N- and C-terminal domains alone have almost undetectable luciferase activity (FIG. 10A). Next, the two fragments were fused to SND1 and MTDH interaction domains respectively to generate SND1-NLuc and CLuc-MTDH (Split-luc) (FIG. 10A, left, and Table 3). […] However, when SND1-NLuc+CLuc-MTDH were co-expressed, N- and C-terminal domains of the luciferase fragments were brought close to each other due to the interaction between SND1 and MTDH, and substantial luciferase activity was reconstituted (FIG. 3A, left and FIG. 10A).
(§1) Luciferase-based screening. Seed HEK293T cells on 3×15 cm dish at 18-24 hr before transfection with 7-8×10^6 cells per dish targeting 70-80% confluence when start transfection. 20 μg of pCDNA3.1-SND1-NLuc, pCDNA3.1-CLuc-MTDH, or 2 μg of pCDNA3.1-NLuc-CLuc plasmids that described above were transfected to each dish. 72 hr after transfection the cells were lysed with 5 ml of luciferase lysis buffer (2 mM EDTA, 20 mM DTT, 10% glycerol, 1% Triton X-100, 25 mM Tris base, adjusted to pH7.8 with H3PO4) at 4° C. for 20 min. The protein lysates were centrifuged at 13,000 rpm for 10 min, and the supernatant were collected.
For small chemical compound screening, white, flat-bottom, solid 384-well plates were used. Compounds were added into each well as 0.1 μl of 10 mM DMSO solution (or same amount of DMSO, serve as control). The first and last columns were free, and MTDH wild type (PNSDWNAPAEEWGNW) or mutant (PNSDANAPAEEAGNW) peptides were added as positive and negative controls right before screening. Same amount of MTDH-CLuc and SND1-NLuc were pre-mixed at 4° C. for 30 min to generate split-luc. 5 μl of split- or linked-luc was added into each well. 15 μl of luciferase assay buffer (25 mM Glycylglycine pH 7.8, 15 mM K3PO4 pH 7.8, 15 mM MgSO4, 4 mM EGTA, 2 mM ATP added just before use, 10 mM DTT added just before use and 1 mM D-Luciferin added just before use) was then added into each well to get a 20 μl reaction system with 50 μM of compounds (peptides) in each well. The plates were incubated at 4° C. for 1 hr and luciferase activity at each well was measured.
The inhibitory efficiency of each compound was calculated as following: (signal at DMSO well−signal at compound well)/signal at DMSO well. MTDH wild type or mutant peptide in each plate was served as positive and negative controls to monitor the data quality of each plate.
T1 sequence (Q7KZF4 with tags, fused parts or gaps): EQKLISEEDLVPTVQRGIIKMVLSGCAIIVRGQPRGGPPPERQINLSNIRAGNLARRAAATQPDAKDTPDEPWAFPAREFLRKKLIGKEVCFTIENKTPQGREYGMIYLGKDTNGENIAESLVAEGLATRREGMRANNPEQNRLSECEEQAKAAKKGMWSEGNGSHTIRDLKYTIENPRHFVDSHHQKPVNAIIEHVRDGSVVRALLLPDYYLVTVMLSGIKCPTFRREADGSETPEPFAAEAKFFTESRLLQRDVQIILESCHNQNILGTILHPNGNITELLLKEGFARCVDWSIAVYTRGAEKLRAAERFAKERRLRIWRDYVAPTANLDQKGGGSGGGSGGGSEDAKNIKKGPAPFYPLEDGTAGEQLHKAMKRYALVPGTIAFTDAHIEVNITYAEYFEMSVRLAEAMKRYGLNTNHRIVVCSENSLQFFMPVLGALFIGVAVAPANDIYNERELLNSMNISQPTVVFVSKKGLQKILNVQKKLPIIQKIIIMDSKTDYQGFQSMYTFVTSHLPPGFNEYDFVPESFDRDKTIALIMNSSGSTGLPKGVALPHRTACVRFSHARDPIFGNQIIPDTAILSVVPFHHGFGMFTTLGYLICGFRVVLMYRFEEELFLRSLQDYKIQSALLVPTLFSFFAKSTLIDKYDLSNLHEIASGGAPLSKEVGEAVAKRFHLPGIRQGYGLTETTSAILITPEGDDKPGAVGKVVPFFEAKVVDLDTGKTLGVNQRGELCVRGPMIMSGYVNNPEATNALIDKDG

[2] = target: T2, MTDH-SND1 interaction: SND1-NLuc (human SND1 16-339aa fused via 3x GGGS linker to N-terminal firefly luciferase 1-416aa) + CLuc-MTDH (C-terminal firefly luciferase 398-550aa fused via 3x GGGS linker to human MTDH 386-407aa) (Homo sapiens, UniProt Q7KZF4); assay: Cell-free split-luciferase assay of MTDH-SND1 interaction disruption, multiple doses (FIG. 3E); type: binding; settings: cell free (HEK293T lysates), curves fit, read-out: MTDH-SND1 interaction (split-luciferase) SND1-NLuc + CLuc-MTDH interaction domains IC50
T2 construct: CLuc (398-550)-GGGS linker-MTDH (386-407) with HA tag; expressed in HEK293T; cell-free split-luciferase complementation
T2 sequence (Q7KZF4 with tags, fused parts or gaps): as above
T2 sequence (Q86UE4 386-407 partner): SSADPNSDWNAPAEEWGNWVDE

[3] = tested on: 4TO7 lung metastases; assay: Established 4TO7 lung macrometastases; type: in vivo, Balb/C females
Procedure: For FIGS. 7A-7D, 2 k 4TO7 cells were injected into Balb/C females. 2 weeks after the injections, the mice were randomized based on lung metastasis that indicated by BLI, and were divided into four groups followed by vehicle, paclitaxel (Pac), and C26-A6 treatment alone or in combination. For Pac, the mice were treated with 20 mg/kg of Pac twice per week for the first two week and then once per week after that, For C26-A6, the mice were treated with 15 mg/kg of C26-A6 5 days per week. n=6 mice per group. Data represent mean±SEM.
FIG. 7A, Representative mice right before the treatment (week 2) and at week 10 are shown.
FIG. 7B, The BLI signal was quantified at week 2. Significance determined by one-way ANOVA analysis with Dunnett's test for multiple comparisons.
FIG. 7C, The metastasis progression of each individual is shown.
FIG. 7D, Survival rate in each group was analyzed. Significance determined by two-sided Log-rank test.
Lastly, to mimic the clinical scenario of adjuvant chemotherapy following surgical removal of the primary tumors, SCP28 mammary tumors were removed when they reached 5 mm in diameter, the mice were then randomly separated into four groups and subjected to the different treatment regimens as above. […] The mice were then treated with vehicle or paclitaxel and C26-A6 alone or in combination, and the metastasis progression was monitored by BLL.

[4] = target: T3, Linked-luc (NLuc and CLuc of firefly luciferase fused together) (Photinus pyralis, UniProt P08659, INS416[…]); assay: Linked-luciferase (Linked-luc) counter screen, cell free; type: biochemical; settings: 50 μM peptide
T3 construct: made in house; host or cells: HEK293T cells, transient transfection of pcDNA3.1-NLuc-CLuc; crude cleared lysate
T3 sequence (P08659 with tags, fused parts or gaps INS416[withheld]): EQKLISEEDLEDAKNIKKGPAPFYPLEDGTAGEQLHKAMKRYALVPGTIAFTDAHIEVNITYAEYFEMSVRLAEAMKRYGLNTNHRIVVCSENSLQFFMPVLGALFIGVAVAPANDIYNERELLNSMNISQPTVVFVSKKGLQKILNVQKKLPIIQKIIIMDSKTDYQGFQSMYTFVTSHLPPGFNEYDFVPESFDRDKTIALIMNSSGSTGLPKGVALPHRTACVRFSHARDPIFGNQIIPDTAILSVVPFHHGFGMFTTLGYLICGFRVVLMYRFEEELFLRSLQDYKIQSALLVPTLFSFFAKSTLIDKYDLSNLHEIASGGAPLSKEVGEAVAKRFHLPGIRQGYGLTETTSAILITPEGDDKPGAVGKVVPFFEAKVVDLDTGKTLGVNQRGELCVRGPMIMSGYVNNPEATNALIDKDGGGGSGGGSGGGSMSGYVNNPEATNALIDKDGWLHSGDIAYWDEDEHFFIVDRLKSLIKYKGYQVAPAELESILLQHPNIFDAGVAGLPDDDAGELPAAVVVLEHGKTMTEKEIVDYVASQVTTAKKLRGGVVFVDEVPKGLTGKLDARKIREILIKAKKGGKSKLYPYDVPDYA
From the text: The interaction between SND1-NLuc and CLuc-MTDH was also validated with co-immunoprecipitation (Co-IP) experiments (FIG. 10B). In the presence of the compounds (inhibitors) that block MTDH-SND1 interaction, the reconstitution of luciferase activity was expected to be reduced (FIG. 3A). Meanwhile, considering the possibility that compounds capable of directly inhibiting the enzymatic activity of luciferase could also result in lower luciferase signal without any blocking effect on MTDH-SND1 interaction, Linked-luc that directly fuse NLuc and CLuc together was generated to be used in counter screening (FIG. 3A, right, and Table 3).
as §1, with “The protein lysates were centrifuged at 13,000 rpm for 10 min, and the supernatant were collected.” left out
For small chemical compound screening, white, flat-bottom, solid 384-well plates were used. […] The plates were incubated at 4° C. for 1 hr and luciferase activity at each well was measured.

[5] = target: T4, MTDH-SND1 interaction (Homo sapiens, UniProt Q7KZF4); assay: Co-immunoprecipitation (Co-IP) in SCP28 lysates with anti-MTDH antibody, Western blot for SND1; type: binding; settings: 500 μM, SCP28 lysate
T4 construct: endogenous in cells; host or cells: SCP28 cells (lysate)
T4 sequence (Q7KZF4 2-910 limits assumed): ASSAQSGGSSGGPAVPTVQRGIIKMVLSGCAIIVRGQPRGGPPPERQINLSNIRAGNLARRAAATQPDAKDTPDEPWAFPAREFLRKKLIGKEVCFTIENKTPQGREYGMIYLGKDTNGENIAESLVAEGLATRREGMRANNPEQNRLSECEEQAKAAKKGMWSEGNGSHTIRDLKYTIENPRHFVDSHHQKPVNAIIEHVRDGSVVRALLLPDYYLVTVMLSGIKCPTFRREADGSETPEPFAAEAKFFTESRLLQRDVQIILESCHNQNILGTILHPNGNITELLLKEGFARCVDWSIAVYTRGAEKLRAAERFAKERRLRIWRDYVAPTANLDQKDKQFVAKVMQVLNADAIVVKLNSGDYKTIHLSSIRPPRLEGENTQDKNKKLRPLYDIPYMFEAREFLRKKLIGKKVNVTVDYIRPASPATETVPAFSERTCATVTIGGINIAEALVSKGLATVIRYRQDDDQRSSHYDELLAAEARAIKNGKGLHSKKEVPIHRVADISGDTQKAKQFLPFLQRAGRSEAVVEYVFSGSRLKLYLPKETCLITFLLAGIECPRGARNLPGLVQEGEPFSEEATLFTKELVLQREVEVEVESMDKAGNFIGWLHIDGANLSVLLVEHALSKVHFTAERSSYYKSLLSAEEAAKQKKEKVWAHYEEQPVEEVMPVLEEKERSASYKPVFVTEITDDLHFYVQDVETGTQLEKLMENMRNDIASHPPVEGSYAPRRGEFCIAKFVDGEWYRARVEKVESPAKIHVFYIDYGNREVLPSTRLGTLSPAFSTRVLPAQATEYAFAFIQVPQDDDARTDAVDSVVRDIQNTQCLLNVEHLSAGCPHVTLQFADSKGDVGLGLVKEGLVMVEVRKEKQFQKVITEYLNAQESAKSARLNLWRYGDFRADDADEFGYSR
Procedure: FIG. 3F, SCP28 cells grown confluent in each 10-cm dish were lysed with 1 ml IP lysis buffer. 500 μM of the compounds were added into each 1 ml of the samples and IP lysis buffer with 2 μg of anti-MTDH antibody. Western blot was then performed to detect SND1 that binds to MTDH.
FIG. 10E, Schematic diagram of Co-IP based confirmation of MTDH-SND1 inhibitory compounds (left). SCP28 cells were lysed for IP assay.2 μg of MTDH antibody together with 500 μM of MTDH wild type (Pep-WT) or mutant (Pep-MT) peptides were added into each 1 ml of samples. Red star indicates wild type MTDH peptide competing off SND1 that binds to MTDH.
Co-immunoprecipitation assay (Co-IP), which is a commonly used standard test to determine protein-protein interaction, was next employed to validate the candidates. Lysates of breast cancer cell line SCP28, a single cell-derived subline from the MDA-MB-231 TNBC cell line^25, was immunoprecipitated with anti-MTDH antibody alone or together with inhibitors (FIG. 3F and FIG. 10E). The samples were then incubated with Protein-A/G beads to pull down MTDH, followed by Western blot analysis to detect SND1. […] Using multiple screening and validation platforms, two classes of compounds, C26s and C32s, were obtained that inhibit MTDH-SND1 interaction.
Immunoprecipitation (IP) and western blotting (WB) analysis. For IP experiment, samples were prepared as previously described^32. 100 μl of the supernatant was transferred to a new tube as input, and the rest was incubated with 2 μg of IgG, anti-Myc (Santa Cruz, SC-40), or anti-MTDH (ThermoFisher, 40-6500) (as indicated in each experiment) overnight at 4° C. (small chemical compounds may be added at this step as indicated in each experiment). The rest standard IP procedures were performed as previously noted^32. […]

Q: `COc1ccc(Cl)cc1S(=O)(=O)Nc1cccn2c(C3CCC3)nnc12` [Analog C26] was tested. Which pIC50 [1] did it give?
A: The pIC50 was over 4.70.

Q: With `COc1ccc(NC(=O)N2CCc3c(C(=O)NC4CCN(C)CC4)cccc32)cc1` [Analog C32] as the compound, how does the pIC50 [1] read?
A: Its pIC50 is over 4.70.

Q: How did the pIC50 [2] turn out when `COc1ccc(Cl)cc1S(=O)(=O)Nc1cccn2cnnc12` [Compound C26-A1] was run?
A: Its pIC50 is 5.07.

Q: How did the pIC50 [2] turn out when `COc1ccc(Cl)cc1S(=O)(=O)Nc1cccn2ncnc12` [Compound C26-A2] was run?
A: The pIC50 was 5.03.

Q: With `COc1ccc(Cl)cc1S(=O)(=O)Nc1cccn2nc(C)nc12` [Compound C26-A6] as the compound, how does the pIC50 [2] read?
A: Its pIC50 is 5.62.

Q: With `COc1ccc(Cl)cc1S(=O)(=O)Nc1cccn2c(C3CCC3)nnc12` [Compound C26] as the compound, how does the pIC50 [2] read?
A: The pIC50 was 4.83.

Q: With `COc1ccc(NC(=O)N2CCc3c(C(=O)NC4CCN(C5CC5)CC4)cccc32)cc1` [Compound C32-A2] as the compound, how does the pIC50 [2] read?
A: The pIC50 was 4.84.

Q: `CNC(=O)c1cccc2c1CCN2C(=O)Nc1ccc(OC)cc1` [Compound C32-A4] was tested. Which pIC50 [2] did it give?
A: Its pIC50 is 5.31.

Q: How did the pIC50 [2] turn out when `COc1ccc(NC(=O)N2CCc3c(C(=O)N(C)C)cccc32)cc1` [Compound C32-A5] was run?
A: Its pIC50 is 5.34.

Q: With `COc1ccc(NC(=O)N2CCc3c(C(=O)NC4CCN(C)CC4)cccc32)cc1` [Compound C32] as the compound, how does the pIC50 [2] read?
A: The pIC50 was 4.29.

Q: `CC(=O)O[C@H]1C(=O)[C@@]2(C)[C@H]([C@H](OC(=O)c3ccccc3)[C@]3(O)C[C@H](OC(=O)[C@H](O)[C@@H](NC(=O)c4ccccc4)c4ccccc4)C(C)=C1C3(C)C)[C@]1(OC(C)=O)CO[C@@H]1C[C@@H]2O` [paclitaxel, reference compound] was tested. Which “metastatic growth (BLI)” value ([3]; Pac 20 mg/kg, C26-A6 15 mg/kg 5 days per week) did it give?
A: The value was “slowed down metastatic growth”.

Q: What about the metastasis shrinkage ([3]; six mice per group) of the same compound?
A: Its metastasis shrinkage is “did not result in metastasis shrinkage”.

Q: How did the linked-luc activity [4] turn out when “PNSDANAPAEEAGNW [MTDH-MT, reference compound]” was run?
A: The linked-luc activity was “not affected”.

Q: What about the split-luc activity [1] of the same compound?
A: Its split-luc activity is “but not the mutant significantly inhibited split-luc activity”.

Q: “PNSDWNAPAEEWGNW [MTDH-WT, reference compound]” was tested. Which linked-luc activity [4] did it give?
A: Its linked-luc activity is “not affected”.

Q: And the split-luc activity [1]?
A: The split-luc activity was “significantly inhibited split-luc activity”.

Q: What about the “MTDH-SND1 interaction (SND1 that binds to MTDH, Co-IP)” value [5] of the same compound?
A: The value was “blocks MTDH-SND1 interaction”.
